Assays:
S. alboviridis KCTC 9750 = test: rifampin-sensitive test on Bennet solid media; type: cell-based; set-up: key to genotype (rifampin-resistance or susceptibility): “(+)” indicates a genotype with rifampin-resistance; “(−)” indicates a genotype with rifampin-susceptibility
Protocol: (§1) The 47 strains were respectively cultured at 28° C. for 72 hr in Bennet liquid media. The culture solution was then inoculated on Bennet solid media (yeast extract 1 g/L, Beef extract 1 g/L, Tryptone 2 g/L, Glycerol 10 g/L, Agar 15 g/L) containing 25 ug/ml rifampin, and after incubation for 72 hr, rifampin-resistance was tested.

S. cinerous KCTC 9066 = test: rifampin-sensitive test on Bennet solid media; type: cell-based; set-up: key to genotype (rifampin-resistance or susceptibility): “(+)” indicates a genotype with rifampin-resistance; “(−)” indicates a genotype with rifampin-susceptibility
Protocol: as §1

S. albaduncus KCTC 1741 = settings: AAC genotype
Protocol: (§2) The primer sets of SEQ ID NOs: 1 and 2 were used to amplify rpoB genes of 60 strains, and nucleotides of the […] products were analyzed with an automatic sequencer. SRPOF1 as a forward primer and SRPOR1 as a backward primer were used.

S. althioticus KCTC 9752 = settings: AAC genotype
Protocol: as §2

S. azureus KCCM 40485 = settings: TCG (TCC) genotype
Protocol: as §2

[1] = test system: S. californicus KCCM 40605; settings: TCG (TCC) genotype
Protocol: as §2

S. candidus KCTC 9020 = settings: TCG (TCC) genotype
Protocol: as §2

[2] = test system: S. cinnamoneus KCCM 40572; settings: TCG (TCC) genotype
Protocol: as §2

[3] = test system: S. coeruleofuscus KCCM 40506; settings: TCG (TCC) genotype
Protocol: as §2

[4] = test system: S. griseoruber KCCM 40658; settings: TCG (TCC) genotype
Protocol: as §2

S. humiferus KCTC 9116 = settings: AAC genotype
Protocol: as §2

S. kifunensis KCTC 9734 = settings: TCG (TCC) genotype
Protocol: as §2

[5] = test system: S. violaceoruber KCTC 9787; settings: AAC genotype
Protocol: as §2

[6] = test system: S. flavotricini KCCM 40520; settings: TCG (TCC) genotype
Protocol: The primer sets of SEQ ID NOs: 1 and 2 were used to amplify rpoB genes of 60 strains, and nucleotides of the 352-bp products were analyzed with an automatic sequencer. SRPOF1 as a forward primer and SRPOR1 as a backward primer were used.

SMILES: CO[C@H]1/C=C/O[C@@]2(C)Oc3c(C)c(O)c4c(O)c(c(/C=N/N5CCN(C)CC5)c(O)c4c3C2=O)NC(=O)/C(C)=C\C=C\[C@H](C)[C@H](O)[C@@H](C)[C@@H](O)[C@@H](C)[C@H](OC(C)=O)[C@@H]1C [rifampin]
- growth in media containing rifampin (S. alboviridis KCTC 9750; S. alboviridis (KCTC 9750), Bennet solid media, FIG. 7 (B)): did not show growth
- genotype (rifampin-resistance or susceptibility) (S. alboviridis KCTC 9750; S. alboviridis KCTC 9750, TCG (TCC) genotype, 25 ug/ml rifampin, 72 hr): −
- growth in media containing rifampin (S. cinerous KCTC 9066; S. cinerous (KCTC 9066), Bennet solid media, FIG. 7 (A)): generated colonies
- genotype (rifampin-resistance or susceptibility) (S. cinerous KCTC 9066; S. cinerous KCTC 9066, AAC genotype, 25 ug/ml rifampin, 72 hr): +
- genotype (rifampin-resistant or -sensitive strain) (S. albaduncus KCTC 1741): +
- genotype (rifampin-resistant or -sensitive strain) (S. althioticus KCTC 9752): +
- genotype (rifampin-resistant or -sensitive strain) (S. azureus KCCM 40485): −
- genotype (rifampin-resistant or -sensitive strain) [1]: −
- genotype (rifampin-resistant or -sensitive strain) (S. candidus KCTC 9020): −
- genotype (rifampin-resistant or -sensitive strain) [2]: −
- genotype (rifampin-resistant or -sensitive strain) [3]: −
- genotype (rifampin-resistant or -sensitive strain) [4]: −
- genotype (rifampin-resistant or -sensitive strain) (S. humiferus KCTC 9116): +
- genotype (rifampin-resistant or -sensitive strain) (S. kifunensis KCTC 9734): −
- genotype (rifampin-resistant or -sensitive strain) [5]: +
- genotype (rifampin-resistant or -sensitive strain) [6]: −
